{"source": "patent US20040228804A1", "about": "“Nasal administration of xylitol to a non-human mammal” (priority 2003, published 2004)", "key": {"shipping fever": {"system": "shipping fever", "assay": "treating cattle with xylitol in solution to reduce or prevent shipping fever", "type": "in vivo", "conditions": "1% xylitol in solution; lower limit of tested effectiveness", "description": "(§1) Embodiments of the present invention are directed to treating cattle with xylitol in solution in order to reduce or prevent shipping fever, and/or ailments associated with close quartering of cattle. The solution may be a saline based solution for some embodiments, but the solution may also have just a water base. A maximum strength may be a saturated solution comprising approximately of 64 grams of xylitol per 100 cubic centimeters (cc's) of solution. The inventor has yet to determine a precise lower limit of xylitol that would be effective, but as little as 1% xylitol in solution has shown to be effective. It should be understood however, that a 1% xylitol in solution should not be construed as a lower limit of effectiveness; rather, this is only the lower limit of tested effectiveness. Smaller percentages of the xylitol in solution may likewise be effective, and thus their use would be within the scope and spirit of the invention.\nThe precise mode of application of the xylitol in solution may vary substantially. In at least some embodiments, nostrils of the cattle may be treated directly prior to close quartering, such as shipping. In particular, in these embodiments the xylitol in solution be applied to each nostril of each animal in the form of a mist (nebulized), which application preferably takes place for approximately two respiratory cycles of the animal for each nostril. […]"}, "[1]": {"assay": "saturated solution of xylitol (maximum strength)", "type": "physicochemical", "conditions": "saline or water based solution", "description": "as §1"}, "pathogenic bacteria": {"system": "pathogenic bacteria", "conditions": "several pathogenic bacteria exposed to xylitol; cited from earlier work"}}}
{"smiles": "OC[C@@H](O)[C@H](O)[C@@H](O)CO", "note": "[xylitol]", "values": [{"measurement": "effectiveness of xylitol in solution", "setting": "shipping fever", "result": "effective"}, {"measurement": "saturated solution, xylitol per 100 cubic centimeters of solution", "setting": "[1]", "result": "~64 grams per 100 cubic centimeter"}, {"measurement": "adherence of bacteria to their environment", "setting": "pathogenic bacteria", "result": "less adherent"}]}
